Laboratory results reported in patent publication US12472170B2, “Use of glutamate 2B receptor antagonists and sigma receptor agonists as antitussives” (Seyltx, Inc., priority 2019, dated 2025).
Where “and” joins values, the source holds several entries; their conditions need not be identical. Equal values may be shown once.

Test system: citric acid (1M) evoked cough in guinea pigs
Test: Citric acid (1M) aerosol-evoked coughs and sneezes in conscious guinea pigs after oral pre-treatment
Format: in vivo, Male Dunkin Hartley guinea pigs
Experimental: The guinea pig species used in one study was twenty four Male Dunkin Hartley guinea pigs, each weighing between 300 and 350 g, which were supplied by Marshall Bioresources Ltd, UK.
A test compound, Ifenprodil, and Gefapixant (in powder form) were prepared and formulated by initially adding 100% propylene glycol at the required volume for the final treatment buffer. The additional buffer ingredients were added in a stepwise fashion, initially solutol and then captisol. Each ingredient was added in a volume equivalent to that which is required for the final volume of treatment buffer for the stock formulation.
In particular, for Gefapixant, this was 0.7 mg/mL, a concentration that delivers 3.5 mg/Kg in a dose volume of 5 mL/Kg. For Ifenprodil, this was 0.3 mg/mL, a concentration that delivers 1.5 mg/Kg in a dose volume of 5 mL/Kg.
Prior to the addition of each buffer ingredient, the test compound formulations were sonicated for 15 min using a Branson 1510 Sonicator. Afterwards, the initial formulation of the test compound and Gefapixant were diluted with a prepared buffer vehicle to provide additional dosing formulations. This was 0.01 to 0.2 mg/ml, preferably 0.06 mg/mL, a dose that delivers 0.3 mg/Kg in a dose volume of 5 mL/Kg.
The final test compound buffer vehicle comprised of 10:10:80 mix of propylene glycol:20% Solutol in PBS:5% Captisol in PBS.
All final test and control formulations were sonicated for 30 min prior to dosing to generate an even suspension or to ensure that the formulation had visibly dissolved.
The animals were first pre-treated (5 mL/Kg, p.o.) with the vehicle, the test compound, or Gefapixant prior to tussive agent (citric acid) exposure, using the amounts set out in Table 1 below. In each case, the route of administration of the treatment was oral.
Animals receiving Gefapixant (3.5 mg/Kg) were dosed 2 hours prior to tussive agent exposure. Animals receiving Ifenprodil (1.5 mg/Kg) were dosed 30 minutes prior to tussive agent exposure.
10 min prior to the tussive evaluation, each animal was individually placed into a purpose built exposure chamber with a supplied airflow through a nebuliser of 2 L/min, and allowed to settle into its new environment.
Following the acclimatisation period, each animal was then exposed for 10 min to an aerosol of 1M citric acid using an ultrasonic nebuliser (Aerogen) set at a nominal liquid consumption rate of 0.6 mL/min.
Coughs and sneezes elicited during the 10 minute aerosol of 1M citric acid, and a subsequent 5 minute observation period, were recorded manually to monitor the animal's welfare. […] The data was analysed for onset of cough, cough numbers and frequency, and sneezes.
The following measurements and assessments were taken for each guinea pig: • Mean total number of coughs evoked in each treatment group • Mean onset of first cough in each group • Mean number of coughs per minute during citric acid exposure in each treatment group
Inter-group deviations were statistically analyzed by a one-way analysis of variance (ANOVA). In the case of significant difference in the mean values among the different levels of treatment, comparisons versus the citric acid vehicle group were carried out using the Dunnett's test. p<0.05 was considered statistically significant.

[1] = Mean of n=6 animals, 10 min Citric acid (1M) exposure, Gefapixant 3.5 mg/Kg p.o., Ifenprodil 1.5 mg/Kg
[2] = Mean of n=6 animals, Post Exposure (5 mins) after 10 min Citric acid (1M), Gefapixant 3.5 mg/Kg p.o., Ifenprodil 1.5 mg/Kg
[3] = Total of n=6 animals, 10 min Citric acid (1M) exposure, Gefapixant 3.5 mg/Kg p.o., Ifenprodil 1.5 mg/Kg
[4] = Total of n=6 animals, Post Exposure (5 mins) after 10 min Citric acid (1M), Gefapixant 3.5 mg/Kg p.o., Ifenprodil 1.5 mg/Kg
[5] = individual animals (ID 1-6), 10 min Citric acid (1M) exposure, Gefapixant 3.5 mg/Kg p.o., Ifenprodil 1.5 mg/Kg
[6] = individual animals (ID 1-6), Post Exposure (5 mins) after 10 min Citric acid (1M), Gefapixant 3.5 mg/Kg p.o., Ifenprodil 1.5 mg/Kg

C[C@@H]([C@H](O)c1ccc(O)cc1)N1CCC(Cc2ccccc2)CC1 (racemic) [Ifenprodil, 4-[2-(4-benzylpiperidin-1-ium-1-yl)-1-hydroxypropyl] phenol; 2,3,4-trihydroxy-4-oxobutanoate]
Total Coughs, Mean (10 min citric acid (1M) exposure + 5 min post exposure, group mean, n=6): 17.17
Total Coughs, individual animal (10 min citric acid (1M) exposure + 5 min post exposure, individual animals 1-6): 16 (2×) and 17 and 23 and 19 and 12
average number of coughs per animal (total number of coughs) (10 min citric acid (1M) exposure + 5 min recovery, Gefapixant 3.5 mg/Kg p.o. 2 hrs prior, Ifenprodil 1.5 mg/Kg p.o. 30 min prior, n=6): 17.17 coughs per animal
reduction in mean cough frequency vs untreated control (Ifenprodil 1.5 mg/kg (p<0.01), Gefapixant 3.5 mg/kg (p<0.05)): 42%
Sneezes, Observation Period 0-1, group Mean [1]: 0.2
Sneezes, Observation Period 1-2, group Mean [1]: 0.5
Sneezes, Observation Period 2-3, group Mean [1]: 0.3
Sneezes, Observation Period 3-4, group Mean [1]: 0.3
Sneezes, Observation Period 4-5, group Mean [1]: 0.5
Sneezes, Observation Period 5-6, group Mean [1]: 0.3
Sneezes, Observation Period 6-7, group Mean [1]: 0.7
Sneezes, Observation Period 7-8, group Mean [1]: 0.5
Sneezes, Observation Period 8-9, group Mean [1]: 0.0
Sneezes, Observation Period 9-10, group Mean [1]: 0.0
Sneezes, Observation Period 10-11, group Mean [2]: 0.0
Sneezes, Observation Period 11-12, group Mean [2]: 0.0
Sneezes, Observation Period 12-13, group Mean [2]: 0.0
Sneezes, Observation Period 13-14, group Mean [2]: 0.0
Sneezes, Observation Period 14-15, group Mean [2]: 0.0
Total Sneezes, group Mean (Mean of n=6 animals, whole observation period 0-15 (10 min Citric acid (1M) exposure + Post Exposure 5 mins), Gefapixant 3.5 mg/Kg p.o., Ifenprodil 1.5 mg/Kg): 3.33
Sneezes, Observation Period 0-1, group Total [3]: 1.0
Sneezes, Observation Period 1-2, group Total [3]: 3.0
Sneezes, Observation Period 2-3, group Total [3]: 2.0
Sneezes, Observation Period 3-4, group Total [3]: 2.0
Sneezes, Observation Period 4-5, group Total [3]: 3.0
Sneezes, Observation Period 5-6, group Total [3]: 2.0
Sneezes, Observation Period 6-7, group Total [3]: 4.0
Sneezes, Observation Period 7-8, group Total [3]: 3.0
Sneezes, Observation Period 8-9, group Total [3]: 0.0
Sneezes, Observation Period 9-10, group Total [3]: 0.0
Sneezes, Observation Period 10-11, group Total [4]: 0.0
Sneezes, Observation Period 11-12, group Total [4]: 0.0
Sneezes, Observation Period 12-13, group Total [4]: 0.0
Sneezes, Observation Period 13-14, group Total [4]: 0.0
Sneezes, Observation Period 14-15, group Total [4]: 0.0
first onset of cough (citric acid (1M) exposure, Gefapixant 3.5 mg/Kg p.o., Ifenprodil 1.5 mg/Kg p.o., group mean, n=6): 59.8 s
average number of sneezes per animal (citric acid (1M) exposure, Gefapixant 3.5 mg/Kg p.o., Ifenprodil 1.5 mg/Kg p.o., n=6): 3.33 sneezes per animal
Onset (sec), Mean (citric acid (1M) exposure, group mean, n=6): 59.8 s
Onset (sec), individual animal (citric acid (1M) exposure, individual animals 1-6): 65 sec and 69 sec and 43 sec (2×) and 72 sec and 67 sec
Sneezes, Observation Period 0-1 [5]: 0 (5×) and 1
Sneezes, Observation Period 1-2 [5]: 1 (3×) and 0 (3×)
Sneezes, Observation Period 2-3 [5]: 0 (4×) and 1 (2×)
Sneezes, Observation Period 3-4 [5]: 1 (2×) and 0 (4×)
Sneezes, Observation Period 4-5 [5]: 0 (4×) and 1 and 2
Sneezes, Observation Period 5-6 [5]: 1 (2×) and 0 (4×)
Sneezes, Observation Period 6-7 [5]: 1 (4×) and 0 (2×)
Sneezes, Observation Period 7-8 [5]: 0 (3×) and 1 (3×)
Sneezes, Observation Period 8-9 [5]: 0
Sneezes, Observation Period 9-10 [5]: 0
Sneezes, Observation Period 10-11 [6]: 0
Sneezes, Observation Period 11-12 [6]: 0
Sneezes, Observation Period 12-13 [6]: 0
Sneezes, Observation Period 13-14 [6]: 0
Sneezes, Observation Period 14-15 [6]: 0
Total Sneezes (individual animals (ID 1-6), whole observation period 0-15 (10 min Citric acid (1M) exposure + Post Exposure 5 mins), Gefapixant 3.5 mg/Kg p.o., Ifenprodil 1.5 mg/Kg): 4 and 3 (3×) and 5 and 2
Cough, observation period 0-1, Mean (min 0-1 of citric acid (1M) exposure, group mean, n=6): 0.7
Cough, observation period 0-1, individual animal (min 0-1 of citric acid (1M) exposure, individual animals 1-6): 0 (3×) and 1 (2×) and 2
Cough, observation period 0-1, Total (min 0-1 of citric acid (1M) exposure, sum over 6 animals): 4.0
Cough, observation period 1-2, Mean (min 1-2 of citric acid (1M) exposure, group mean, n=6): 1.5
Cough, observation period 1-2, individual animal (min 1-2 of citric acid (1M) exposure, individual animals 1-6): 1 (3×) and 2 (3×)
Cough, observation period 1-2, Total (min 1-2 of citric acid (1M) exposure, sum over 6 animals): 9.0
Cough, observation period 2-3, Mean (min 2-3 of citric acid (1M) exposure, group mean, n=6): 2.3
Cough, observation period 2-3, individual animal (min 2-3 of citric acid (1M) exposure, individual animals 1-6): 3 (4×) and 2 and 0
Cough, observation period 2-3, Total (min 2-3 of citric acid (1M) exposure, sum over 6 animals): 14.0
Cough, observation period 3-4, Mean (min 3-4 of citric acid (1M) exposure, group mean, n=6): 2.2
Cough, observation period 3-4, individual animal (min 3-4 of citric acid (1M) exposure, individual animals 1-6): 3 (2×) and 2 (3×) and 1
Cough, observation period 3-4, Total (min 3-4 of citric acid (1M) exposure, sum over 6 animals): 13.0
Cough, observation period 4-5, Mean (min 4-5 of citric acid (1M) exposure, group mean, n=6): 2.5
Cough, observation period 4-5, individual animal (min 4-5 of citric acid (1M) exposure, individual animals 1-6): 3 (4×) and 2 and 1
Cough, observation period 4-5, Total (min 4-5 of citric acid (1M) exposure, sum over 6 animals): 15.0
Cough, observation period 5-6, Mean (min 5-6 of citric acid (1M) exposure, group mean, n=6): 2.3
Cough, observation period 5-6, individual animal (min 5-6 of citric acid (1M) exposure, individual animals 1-6): 2 (4×) and 3 (2×)
Cough, observation period 5-6, Total (min 5-6 of citric acid (1M) exposure, sum over 6 animals): 14.0
Cough, observation period 6-7, Mean (min 6-7 of citric acid (1M) exposure, group mean, n=6): 1.3
Cough, observation period 6-7, individual animal (min 6-7 of citric acid (1M) exposure, individual animals 1-6): 1 (3×) and 2 and 0 and 3
Cough, observation period 6-7, Total (min 6-7 of citric acid (1M) exposure, sum over 6 animals): 8.0
Cough, observation period 7-8, Mean (min 7-8 of citric acid (1M) exposure, group mean, n=6): 1.7
Cough, observation period 7-8, individual animal (min 7-8 of citric acid (1M) exposure, individual animals 1-6): 1 (2×) and 2 (4×)
Cough, observation period 7-8, Total (min 7-8 of citric acid (1M) exposure, sum over 6 animals): 10.0
Cough, observation period 8-9, Mean (min 8-9 of citric acid (1M) exposure, group mean, n=6): 1.0
Cough, observation period 8-9, individual animal (min 8-9 of citric acid (1M) exposure, individual animals 1-6): 0 (2×) and 1 (3×) and 3
Cough, observation period 8-9, Total (min 8-9 of citric acid (1M) exposure, sum over 6 animals): 6.0
Cough, observation period 9-10, Mean (min 9-10 of citric acid (1M) exposure, group mean, n=6): 0.8
Cough, observation period 9-10, individual animal (min 9-10 of citric acid (1M) exposure, individual animals 1-6): 1 (3×) and 0 (2×) and 2
Cough, observation period 9-10, Total (min 9-10 of citric acid (1M) exposure, sum over 6 animals): 5.0
Cough, observation period 10-11, Mean (min 10-11, post exposure, group mean, n=6): 0.7
Cough, observation period 10-11, individual animal (min 10-11, post exposure, individual animals 1-6): 0 (2×) and 1 (4×)
Cough, observation period 10-11, Total (min 10-11, post exposure, sum over 6 animals): 4.0
Cough, observation period 11-12, Mean (min 11-12, post exposure, group mean, n=6): 0.2
Cough, observation period 11-12, individual animal (min 11-12, post exposure, individual animals 1-6): 1 and 0 (5×)
Cough, observation period 11-12, Total (min 11-12, post exposure, sum over 6 animals): 1.0
Cough, observation period 12-13, Mean (min 12-13, post exposure, group mean, n=6): 0.0
Cough, observation period 12-13, individual animal (min 12-13, post exposure, individual animals 1-6): 0
Cough, observation period 12-13, Total (min 12-13, post exposure, sum over 6 animals): 0.0
Cough, observation period 13-14, Mean (min 13-14, post exposure, group mean, n=6): 0.0
Cough, observation period 13-14, individual animal (min 13-14, post exposure, individual animals 1-6): 0
Cough, observation period 13-14, Total (min 13-14, post exposure, sum over 6 animals): 0.0
Cough, observation period 14-15, Mean (min 14-15, post exposure, group mean, n=6): 0.0
Cough, observation period 14-15, individual animal (min 14-15, post exposure, individual animals 1-6): 0
Cough, observation period 14-15, Total (min 14-15, post exposure, sum over 6 animals): 0.0
anti-tussive effect (in words) (oral administration, conscious guinea pigs with citric acid): shows efficacy in preventing and/or alleviating coughing
